Values quoted from earlier work as cited in patent JP2011132186A, “ホルモン不応性前立腺癌治療法及び治療効果予測方法” (University of Tokushima NUC, priority 2009, dated 2011).

Test system: hormone-refractory prostate cancer [ホルモン不応性前立腺癌]
Conditions: large phase III comparative trial in Europe and USA

Row | SMILES | median survival time (OS) [months]
1 | CC(=O)O[C@@]12CO[C@@H]1C[C@H](O)[C@@]1(C)C(=O)[C@H](O)C3=C(C)[C@@H](OC(=O)[C@H](O)[C@@H](NC(=O)OC(C)(C)C)c4ccccc4)C[C@@](O)([C@@H](OC(=O)c4ccccc4)[C@H]21)C3(C)C [ドセタキセル] | 18.9
2 | O=C1c2c(O)ccc(O)c2C(=O)c2c(NCCNCCO)ccc(NCCNCCO)c21 [ミトキサントロン] | 16.5
